The values that follow come from PubChem BioAssay AID1259411 (Chemical Carcinogenesis Research Information System (CCRIS), 2018).

In this data set the test system is rodent carcinogenicity bioassays, tumor incidence. The data set is described as follows: CCRIS carcinogenicity studies. The method, boiled down:
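NCI-built, expert-reviewed records of carcinogenicity and related test outcomes (mutagenicity, tumor promotion/inhibition) compiled from published and report sources, historical span 1985-2011, not updated.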

Active and inactive are the calls of the source. How the calls were made is not given here.

`OC1c2ccc3cc4ccccc4nc3c2C2OC2C1O` (stereo unspecified): the carcinogen call (Species: MOUSE, Strain/Sex: SWISS/FEMALE, Route: INTRAPERITONEAL, Dose: 0, 0.5 UMOL GIVEN AS 70 NMOL IN 5 µL DMSO WITHIN 24 HR OF BIRTH, 140 NMOL IN 10 µL DMSO ON D 8 OF LIFE, AND 280 NMOL IN, Tumor Site: Type of Lesion: LUNG: ADENOMA) is “active; positive”; the carcinogen call (Species: MOUSE, Strain/Sex: SWISS/FEMALE, Route: INTRAPERITONEAL, Dose: 0, 1.05 UMOL GIVEN AS 150 NMOL IN 5 µL DMSO WITHIN 24 HR OF BIRTH, 300 NMOL IN 10 µL DMSO ON D 8 OF LIFE, AND 600 NMOL I, Tumor Site: Type of Lesion: LUNG: ADENOMA) was “active; positive”; the carcinogen call (Species: MOUSE, Strain/Sex: SWISS/MALE, Route: INTRAPERITONEAL, Dose: 0, 0.5 UMOL GIVEN AS 70 NMOL IN 5 µL DMSO WITHIN 24 HR OF BIRTH, 140 NMOL IN 10 µL DMSO ON D 8 OF LIFE, AND 280 NMOL IN, Tumor Site: Type of Lesion: LUNG: ADENOMA, LIVER: NEOPLASTIC NODULE) is “active; positive”; the carcinogen call (Species: MOUSE, Strain/Sex: SWISS/MALE, Route: INTRAPERITONEAL, Dose: 0, 1.05 UMOL GIVEN AS 150 NMOL IN 5 µL DMSO WITHIN 24 HR OF BIRTH, 300 NMOL IN 10 µL DMSO ON D 8 OF LIFE, AND 600 NMOL I, Tumor Site: Type of Lesion: LUNG: ADENOMA, LIVER: NEOPLASTIC NODULE) was “active; positive”.
Take `CCCCCCCC/C=C/CCCCCCCC(=O)OCCOCC(OCCO)C1OCC(OCCO)C1OCCO` (stereo unspecified): the carcinogen call was “inactive; negative” (Species: MOUSE, Strain/Sex: B6C3F1/FEMALE, Route: ORAL, Dose: 0, 25000, 50000 PPM IN FEED 7 D/WK FOR 103 WK (STUDY DURATION: 103 WK), Dose: 0, 25000, 50000 PPM IN FEED 7 D/WK FOR 103 WK (STUDY DURATION: 103 WK)); “inactive; negative” (Species: MOUSE, Strain/Sex: B6C3F1/MALE, Route: ORAL, Dose: 0, 25000, 50000 PPM IN FEED 7 D/WK FOR 103 WK (STUDY DURATION: 103 WK), Dose: 0, 25000, 50000 PPM IN FEED 7 D/WK FOR 103 WK (STUDY DURATION: 103 WK)); “inactive; negative” (Species: RAT, Strain/Sex: F344/FEMALE, Route: ORAL, Dose: 0, 25000, 50000 PPM IN FEED 7 D/WK FOR 103 WK (STUDY DURATION: 103 WK), Dose: 0, 25000, 50000 PPM IN FEED 7 D/WK FOR 103 WK (STUDY DURATION: 103 WK)); “equivocal” (Species: RAT, Strain/Sex: F344/MALE, Route: ORAL, Dose: 0, 25000, 50000 PPM IN FEED 7 D/WK FOR 103 WK (STUDY DURATION: 103 WK), Dose: 0, 25000, 50000 PPM IN FEED 7 D/WK FOR 103 WK (STUDY DURATION: 103 WK), Tumor Site: Type of Lesion: ADRENAL MEDULLA: PHEOCHROMOCYTOMA).
Turning to `O=P(OCC(Br)CBr)(OCC(Br)CBr)OCC(Br)CBr` (stereo unspecified), the carcinogen call was “active; positive” (Species: MOUSE, Strain/Sex: B6C3F1/FEMALE, Route: ORAL, Dose: 0, 500, 1000 PPM IN DIET, Dose: 0, 500, 1000 PPM IN DIET, Tumor Site: Type of Lesion: STOMACH: SQUAMOUS CELL PAPILLOMA OR CARCINOMA, LUNG: ALVEOLAR/BRONCHIOLAR ADENOMA OR CARCINOMA, LIVER: HEPATOCELLULAR AD, Tumor Site: Type of Lesion: STOMACH: SQUAMOUS CELL PAPILLOMA OR CARCINOMA, LUNG: ALVEOLAR/BRONCHIOLAR ADENOMA OR CARCINOMA, LIVER: HEPATOCELLULAR AD); “active; positive” (Species: MOUSE, Strain/Sex: B6C3F1/MALE, Route: ORAL, Dose: 0, 500, 1000 PPM IN DIET, Dose: 0, 500, 1000 PPM IN DIET, Tumor Site: Type of Lesion: STOMACH: SQUAMOUS CELL PAPILLOMA OR CARCINOMA, LUNG: ALVEOLAR/BRONCHIOLAR ADENOMA OR CARCINOMA); “active; positive” (Species: RAT, Strain/Sex: F344/FEMALE, Route: ORAL, Dose: 0, 50, 100 PPM IN DIET, Dose: 0, 50, 100 PPM IN DIET, Tumor Site: Type of Lesion: KIDNEY: TUBULAR CELL ADENOMA); “active; positive” (Species: RAT, Strain/Sex: F344/MALE, Route: ORAL, Dose: 0, 50, 100 PPM IN DIET, Dose: 0, 50, 100 PPM IN DIET, Tumor Site: Type of Lesion: KIDNEY: TUBULAR CELL ADENOMA OR ADENOCARCINOMA).
With `OCc1ccc2ccc3cccc4ccc1c2c34`, where the note is “Species: RAT, Strain/Sex: SPRAGUE-DAWLEY/FEMALE, Route: SUBCUTANEOUS, Dose: 0, 0.2 UMOL IN 0.1 ML SESAME OIL:DMSO (9:1) 1/2 D FOR 20 DOSES (STUDY DURATION: 52 WK)”, the carcinogen call was “inactive; negative”.
As for `c1ccc2ncccc2c1`, the carcinogen call by setting is: (Species: MOUSE, Route: ORAL, Tumor Site: Type of Lesion: LIVER) “active; positive”; (Species: MOUSE, Strain/Sex: CD-1/FEMALE, Route: INTRAPERITONEAL, Dose: 0, 0.25, 0.5, 1.0 UMOL IN DMSO TO NEWBORN MICE ON DAYS 1, 8 AND 15 OF LIFE RESPECTIVELY (TOTAL DOSE: 1.75 UMOL) (STUDY D, Dose: 0, 0.25, 0.5, 1.0 UMOL IN DMSO TO NEWBORN MICE ON DAYS 1, 8 AND 15 OF LIFE RESPECTIVELY (TOTAL DOSE: 1.75 UMOL) (STUDY D) “inactive; negative”; (Species: MOUSE, Strain/Sex: CD-1/FEMALE, Route: INTRAPERITONEAL, Dose: 0, 1.75 UMOL/MOUSE (TOTAL DOSE) ADMINISTERED DURING DAYS 1, 8, AND 15 OF LIFE (STUDY DURATION: 52 WK)) “inactive; negative”; (Species: MOUSE, Strain/Sex: CD-1/MALE, Route: INTRAPERITONEAL, Dose: 0, 0.25, 0.5, 1.0 UMOL IN DMSO TO NEWBORN MICE ON DAY 1,8 AND 15 OF LIFE RESPECTIVELY (TOTAL DOSE: 1,75 UMOL) (STUDY DUR, Dose: 0, 0.25, 0.5, 1.0 UMOL IN DMSO TO NEWBORN MICE ON DAY 1,8 AND 15 OF LIFE RESPECTIVELY (TOTAL DOSE: 1,75 UMOL) (STUDY DUR, Tumor Site: Type of Lesion: LIVER: HEPATOMA, ADENOMA) “active; positive”; (Species: MOUSE, Strain/Sex: CD-1/MALE, Route: INTRAPERITONEAL, Dose: 0, 1.75 UMOL/MOUSE (TOTAL DOSE) ADMINISTERED DURING DAYS 1, 8, AND 15 OF LIFE (STUDY DURATION: 52 WK), Tumor Site: Type of Lesion: LIVER: ADENOMA OR CARCINOMA) “active; positive”; (Species: RAT, Route: ORAL, Tumor Site: Type of Lesion: LIVER) “active; positive”. Also, the carcinogen call by setting is: (Species: RAT, Strain/Sex: SPRAGUE-DAWLEY/FEMALE, Route: SUBCUTANEOUS, Dose: 0, 200 UMOL/KG IN DMSO INTO SUPRASCAPULAR AREA ON DAY 1 OF LIFE FOLLOWED BY 0, 100 UMOL 1/WK AT WK 2-7 THEN 0, 200 UMOL/, Dose: 0, 200 UMOL/KG IN DMSO INTO SUPRASCAPULAR AREA ON DAY 1 OF LIFE FOLLOWED BY 0, 100 UMOL 1/WK AT WK 2-7 THEN 0, 200 UMOL/) “inactive; negative”; (Species: RAT, Strain/Sex: SPRAGUE-DAWLEY/MALE, Route: SUBCUTANEOUS, Dose: 0, 200 UMOL/KG IN DMSO INTO SUPRASCAPULAR AREA ON DAY 1 OF LIFE FOLLOWED BY 0, 100 UMOL 1/WK AT WK 2-7 THEN 0, 200 UMOL/, Dose: 0, 200 UMOL/KG IN DMSO INTO SUPRASCAPULAR AREA ON DAY 1 OF LIFE FOLLOWED BY 0, 100 UMOL 1/WK AT WK 2-7 THEN 0, 200 UMOL/) “inactive; negative”; (Species: RAT, Strain/Sex: WISTAR/MALE, Route: ORAL, Dose: 0, 0.25% IN DIET FOR 4 WK (STUDY DURATION: 20 WK)) “inactive; negative”; (Species: RAT, Strain/Sex: WISTAR/MALE, Route: ORAL, Dose: 0, 0.25% IN DIET FOR 8 WK (STUDY DURATION: 20 WK)) “inactive; negative”; (Species: RAT, Strain/Sex: WISTAR/MALE, Route: ORAL, Dose: 0, 0.25% IN DIET FOR 12 WK (STUDY DURATION: 20 WK), Tumor Site: Type of Lesion: LIVER: HEMANGIOENDOTHELIOMA) “active; positive”; (Species: RAT, Strain/Sex: WISTAR/MALE, Route: ORAL, Dose: 0, 0.25% IN DIET FOR 16 WK (STUDY DURATION: 20 WK), Tumor Site: Type of Lesion: LIVER: HEMANGIOENDOTHELIOMA) “active; positive”. Also, the carcinogen call (Species: RAT, Strain/Sex: WISTAR/MALE, Route: ORAL, Dose: 0, 0.25% IN DIET FOR 20 WK (STUDY DURATION: 20 WK), Tumor Site: Type of Lesion: LIVER: HEMANGIOENDOTHELIOMA) was “active; positive”.
